Laboratory results published in patent US10316035B2, “Triazolopyridine inhibitors of myeloperoxidase” (BRISTOL-MYERS SQUIBB COMPANY, priority 2015, dated 2019).

Each molecule was assayed against T1, myeloperoxidase (MPO) (Homo sapiens, UniProt P05164) (assay: MPO peroxidation assay (Amplex Red assay)). Conditions: MPO peroxidation, potency range class; read-out: Amplex Red IC50.
T1 sequence (P05164 49-745): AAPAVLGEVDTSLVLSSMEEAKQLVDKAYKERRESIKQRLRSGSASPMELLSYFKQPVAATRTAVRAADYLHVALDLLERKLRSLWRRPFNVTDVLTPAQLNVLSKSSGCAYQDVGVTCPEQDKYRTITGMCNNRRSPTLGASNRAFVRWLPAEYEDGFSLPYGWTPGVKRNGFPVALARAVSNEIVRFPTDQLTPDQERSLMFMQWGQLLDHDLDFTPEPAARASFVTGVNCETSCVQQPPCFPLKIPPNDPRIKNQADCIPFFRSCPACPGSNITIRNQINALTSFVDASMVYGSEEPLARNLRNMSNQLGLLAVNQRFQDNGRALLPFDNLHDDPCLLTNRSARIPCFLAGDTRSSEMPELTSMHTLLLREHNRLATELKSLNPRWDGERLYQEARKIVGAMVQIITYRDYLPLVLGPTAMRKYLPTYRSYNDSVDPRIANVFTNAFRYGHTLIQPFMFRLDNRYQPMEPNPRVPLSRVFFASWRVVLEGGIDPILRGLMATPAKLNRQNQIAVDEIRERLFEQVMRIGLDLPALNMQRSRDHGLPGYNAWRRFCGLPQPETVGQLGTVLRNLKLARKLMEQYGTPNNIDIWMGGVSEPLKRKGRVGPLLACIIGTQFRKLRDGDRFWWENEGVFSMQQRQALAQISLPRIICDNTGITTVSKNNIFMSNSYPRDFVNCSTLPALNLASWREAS
Assay type: biochemical
Method in brief: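 Peroxidase turnover of Amplex Red to fluorescent resorufin (Ex 535/Em 590 nm) was followed for 15 min in 100 mM KPi, pH 7.4, after 10 min room-temperature preincubation of compound with 200 pM enzyme plus 40 nM H2O2. The substrate mix contained 200 μM Amplex Red and 10 mM H2O2. IC50s came from linear-phase rates (180–540 s) fitted with a Hill equation.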

Row | IC50 | SMILES
1 | 0.101 to 0.999 µM | CS(=O)(=O)c1cc(-n2ccnc2)ccc1COc1cc(N)nc2[nH]nnc12 [Example 280, 7-((4-(1H-imidazol-1-yl)-2-(methylsulfonyl)benzyl)oxy)-3H-[1,2,3]triazolo[4,5-b] pyridin-5-amine]
2 | 0.001 to 0.1 µM | Nc1cc(OCc2c(F)cc(-n3ncc4ccccc43)cc2F)c2nn[nH]c2n1 [Example 281, 7-((2,6-difluoro-4-(1H-indazol-1-yl)benzyl)oxy)-3H-[1,2,3]triazolo[4,5-b]pyridin-5-amine]
3 | 0.001 to 0.1 µM | CS(=O)(=O)c1cc(-n2ncc3ccccc32)ccc1COc1cc(N)nc2[nH]nnc12 [Example 282, 7-((4-(1H-indazol-1-yl)-2-(methylsulfonyl)benzyl)oxy)-3H-[1,2,3]triazol[4,5-b] pyridin-5-amine]
4 | 0.001 to 0.1 µM | Nc1cc(OCc2ccc(-c3cccnc3)cc2OC(F)(F)F)c2nn[nH]c2n1 [Example 285, 7-((4-(Pyridin-3-yl)-2-(trifluoromethoxy)benzyl)oxy)-3H-[1,2,3]triazolo[4,5-b]pyridin-5-amine]
5 | 0.001 to 0.1 µM | CNS(=O)(=O)c1ccc(-c2ccc(COc3cc(N)nc4[nH]nnc34)c(OC(F)(F)F)c2)cc1 [Example 286, 4′-(((5-amino-3H-[1,2,3]triazolo[4,5-b]pyridin-7-yl)oxy)methyl)-N-methyl-3′-(trifluoromethoxy)-[1,1′-biphenyl]-4-sulfonamide]
6 | 0.101 to 0.999 µM | COc1ncc(-c2ccc(COc3cc(N)nc4[nH]nnc34)c(OC(F)(F)F)c2)cn1 [Example 288, 7-((4-(2-methoxypyrimidin-5-yl)-2-(trifluoromethoxy)benzyl)oxy)-3H-[1,2,3] triazolo[4,5-b]pyridin-5-amine]
7 | 0.001 to 0.1 µM | CSc1ccc(-c2ccc(COc3cc(N)nc4[nH]nnc34)c(OC(F)(F)F)c2)cn1 [Example 289, 7-((4-(6-(methylthio)pyridin-3-yl)-2-(trifluoromethoxy)benzyl)oxy)-3H-[1,2,3] triazolo[4,5-b]pyridin-5-amine]
8 | 0.001 to 0.1 µM | COc1ccc(-c2ccc(COc3cc(N)nc4[nH]nnc34)c(OC(F)(F)F)c2)cn1 [Example 290, 7-((4-(6-methoxypyridin-3-yl)-2-(trifluoromethoxy)benzyl)oxy)-3H-[1,2,3] triazolo[4,5-b]pyridin-5-amine]
9 | 0.001 to 0.1 µM | Nc1ccc(-c2ccc(COc3cc(N)nc4[nH]nnc34)c(OC(F)(F)F)c2)cn1 [Example 291, 7-((4-(6-aminopyridin-3-yl)-2-(trifluoromethoxy)benzyl)oxy)-3H-[1,2,3]triazolo[4,5-b] pyridin-5-amine]
10 | 0.001 to 0.1 µM | N#Cc1ccc(-c2ccc(COc3cc(N)nc4[nH]nnc34)c(OC(F)(F)F)c2)cn1 [Example 292, 5-(4-(((5-amino-3H-[1,2,3]triazolo[4,5-b]pyridin-7-yl)oxy)methyl)-3-(trifluoromethoxy)phenyl)picolinonitrile]
11 | 0.101 to 0.999 µM | CC(C)Oc1ccc(-c2ccc(COc3cc(N)nc4[nH]nnc34)c(OC(F)(F)F)c2)cn1 [Example 293, 7-((4-(6-isopropoxypyridin-3-yl)-2-(trifluoromethoxy)benzyl)oxy)-3H-[1,2,3] triazolo[4,5-b]pyridin-5-amine]
12 | 0.101 to 0.999 µM | CS(=O)(=O)c1cncc(-c2ccc(COc3cc(N)nc4[nH]nnc34)c(OC(F)(F)F)c2)c1 [Example 294, 7-((4-(5-(methylsulfonyl)pyridin-3-yl)-2-(trifluoromethoxy)benzyl)oxy)-3H-[1,2,3] triazolo[4,5-b]pyridin-5-amine]
13 | 0.101 to 0.999 µM | CS(=O)(=O)N1CCN(c2ccc(-c3ccc(COc4cc(N)nc5[nH]nnc45)c(OC(F)(F)F)c3)cn2)CC1 [Example 295, 7-((4-(6-(4-(methylsulfonyl)piperazin-1-yl)pyridin-3-yl)-2-(trifluoromethoxy)benzyl)oxy)-3H-[1,2,3] triazolo[4,5-b]pyridin-5-amine]
14 | 0.001 to 0.1 µM | Nc1cc(OCc2ccc(-c3ccc(CO)nc3)cc2OC(F)(F)F)c2nn[nH]c2n1 [Example 296, (5-(4-(((5-amino-3H-[1,2,3]triazolo[4,5-b]pyridin-7-yl)oxy)methyl)-3-(trifluoromethoxy)phenyl)pyridin-2-yl)methanol]
